Like-named read-outs stand apart in the source and are kept apart here.
Key:
Assay type in all cases: cell-based
[1] = system: PI3Kα H1047R mutation cell line MDA-MB-453; experiment: Cell Proliferation IC50 Assay (CellTiter-Glo), MDA-MB-453; details: Homo sapiens; MDA-MB-453 (H1047R), 72 hours, CellTiter-Glo; read-out: IC50 (μM) MDA-MB-453
Excerpt: PI3Kα H1047R mutation cell line T-47D and MDA-MB-453, E545K mutation cell line MDA-MB-361 and PI3Kα wide type cell line SK-BR-3 were purchased from Cobioer Biotech (cat. no CBP60397, CBP60386, CBP60383 and CBP60413 respectively). The CellTiter-Glo Direct Cell Proliferation Assay Kit was purchased from Prornega (cat. No. G7573)
For cell proliferation assay in each cell line: • a. Prepare complete medium (R PMI 1640, DMEM or McCoys): Add FBS and appropriate additives according to the information sheet provided by the vendor. Mix gently. • b. Prepare single cell suspension and count the cell numbers and adjust cells to appropriate density. • c. Add 80 μL of cell suspension to 96-well opaque-walled clear bottom plates according to the planned plate layout and place the plates in the CO2 incubator overnight. • d. Prepare intermediate plate: 10 μl of diluted test compounds or staurosporine solution (200×) is added to a 96 deep well plate. Then 390 μl of culture medium without FBS is added to the respective wells. • e. Transfer 20 μL of the solutions from the above intermediate plate to the wells of the plate prepared containing 80 μL of the culture medium and cells. The total dilution is 200 folds. • f. The cells were then incubated at 5% CO2, 37° C. for 72 hours. • g. Equilibrate the plate and its contents to room temperature for approximately 30 minutes. • h. Add 100 μL of CellTiter-Glo reagent to the assay plate • i. Mix contents for 10 minutes on an orbital shaker to induce cell lysis. • j. Allow the plate to incubate at room temperature for 10 minutes to stabilize luminescent signal, • k. Paste the clear bottom with white back seal and record luminescence with Varioskan LUX plate reader.
Inhibition % and IC50 value were calculated by the formula described below: […]

[2] = system: PI3Kα wide type cell line SK-BR-3; experiment: Cell Proliferation IC50 Assay (CellTiter-Glo), SK-BR-3; details: Homo sapiens, read-out: IC50 (μM) SK-BR-3
In short: (§1)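 Read-out was CellTiter-Glo luminescence after 72 h of compound exposure at 37 °C, 5% CO2. Cells had been plated overnight in complete medium before the compound was added at a 200-fold final dilution. IC50 was derived from percent inhibition.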

[3] = system: PI3Kα H1047R mutation cell line T-47D; experiment: Cell Proliferation IC50 Assay (CellTiter-Glo), T-47D; details: Homo sapiens, read-out: IC50 (μM) T47D
In short: as §1

[4] = SK-BR-3 (PI3Kα wild type), 72 hours, CellTiter-Glo
[5] = T47D, 72 h, T47D (H1047R), 72 hours, CellTiter-Glo

IC50 [1] | IC50 [2, 4] | IC50 [3, 5] | SMILES | other results
2.34 µM | > 10 µM |  | Cc1cc([C@H](C)Nc2ccccc2C(=O)O)c2oc(-c3ccc(N4CCOCC4)cc3)c(C)c(=O)c2c1 (single isomer, unassigned) [Example 53B] | 
0.25 µM | > 10 µM |  | CCN1Cc2cc(-c3cc(=O)c4cc(C)cc(C(C)Nc5ccccc5C(=O)O)c4o3)ccc2C1=O (centres unmarked) [Example 7, 2-((1-(2-(2-ethyl-1-oxoisoindolin-5-yl)-6-methyl-4-oxo-4H-chromen-8-yl)ethyl)amino)benzoic acid] | 
> 10 µM | > 10 µM |  | Cc1cc(C(C)Nc2ccccc2C(=O)O)c2oc(-c3ccc4c(c3)N(C)C(=O)C4)cc(=O)c2c1 (centres unmarked) [Example 21, 2-((1-(6-methyl-2-(1-methyl-2-oxoindolin-6-yl)-4-oxo-4H-chromen-8-yl)ethyl)amino)benzoic acid] | 
4.07 µM | > 10 µM |  | Cc1cc(C(C)Nc2ccccc2C(=O)O)c2oc(-c3cccc4c3CN(C)C4=O)cc(=O)c2c1 (centres unmarked) [Example 24, 2-((1-(6-methyl-2-(2-methyl-1-oxoisoindolin-4-yl)-4-oxo-4H-chromen-8-yl)ethyl)amino)benzoic acid] | 
0.74 µM | > 10 µM |  | Cc1cc(C(C)Nc2ccccc2C(=O)O)c2oc(-c3cncs3)cc(=O)c2c1 (centres unmarked) [Example 27, 2-((1-(6-methyl-4-oxo-2-(thiazol-5-yl)-4H-chromen-8-yl)ethyl)amino)benzoic acid] | 
0.39 µM | > 10 µM |  | Cc1cc(C(C)Nc2ccccc2C(=O)O)c2oc(-c3ccc4c(c3)CN(C(C)C)C4=O)cc(=O)c2c1 (centres unmarked) [Example 44, -((1-(2-(2-isopropyl-1-oxoisoindolin-5-yl)-6-methyl-4-oxo-4H-chromen-8-yl)ethyl)amino)benzoic acid] | 
0.97 µM | > 10 µM |  | Cc1cc(C(C)Nc2ccccc2C(=O)O)c2oc(-c3ccc4c(c3)CN(C3COC3)C4=O)cc(=O)c2c1 (centres unmarked) [Example 45, 2-((1-(6-methyl-2-(2-(oxetan-3-yl)-1-oxoisoindolin-5-yl)-4-oxo-411-chromen-8-yl)ethyl)amino)benzoic acid] | 
0.42 µM | > 10 µM |  | Cc1cc(C(C)Nc2ccccc2C(=O)O)c2oc(-c3ccc4c(c3)CN(Cc3ccccc3)C4=O)cc(=O)c2c1 (centres unmarked) [Example 46, 2-((1-(2-(2-benzyl-1-oxoisoindolin-5-yl)-6-methyl-4-oxo-4H-chromen-8-yl)ethyl)amino)benzoic acid] | 
0.24 µM | > 10 µM |  | Cc1cc(C(C)Nc2ccccc2C(=O)O)c2oc(-c3ccc4c(c3)CCN(C)C4=O)cc(=O)c2c1 (centres unmarked) [Example 47, 2-((1-(6-methyl-2-(2-methyl-1-oxo-1,2,3,4-tetrahydroisoquinolin-6-yl)-4-oxo-4H-chromen-8-yl)ethyl)amino)benzoic acid] | 
0.76 µM | > 10 µM |  | Cc1cc(C(C)Nc2ccccc2C(=O)O)c2oc(-c3ccc(C(=O)N(C)C)c(C)c3)cc(=O)c2c1 (centres unmarked) [Example 48, 2-((1-(2-(4-(dimethylcarbamoyl)-3-methylphenyl)-6-methyl-4-oxo-4H-chromen-8-yl)ethyl)amino)benzoic acid] | 
 | 4.39 µM | 0.042 µM | Cc1cc([C@@H](C)Nc2ccc(Cl)nc2C(=O)O)c2oc(-c3ccc(OCCN(C)C)cc3)c(C)c(=O)c2c1 [Example 165, (R)-6-chloro-3-((1-(2-(4-(2-(dimethylamino)ethoxy)phenyl)-3,6-dimethyl-4-oxo-41-1 chromen-8-yl)ethyl)amino)picolinic acid] | 
 | > 10 µM | 0.23 µM | Cc1cc([C@@H](C)Nc2ccccc2C(=O)O)c2oc(-c3ccc(OCCN(C)C)cc3)cc(=O)c2c1 [Example 166, (R)-2-((1-(2-(4-(2-(dimethylamino)ethoxy)phenyl)-6-methyl-4-oxo-4H-1-chromen-8-yl)ethyl)amino)benzoic acid] | 
 | > 10 µM | 0.092 µM | Cc1cc([C@@H](C)Nc2ccccc2C(=O)O)c2oc(-c3ccc(N4CCC[C@H](N(C)C)C4)cc3)c(C)c(=O)c2c1 [Example 168, 2-(((R)-1-(2-(4-((S)-3-(dimethylamino)piperidin-1-yl)phenyl)-3,6-dimethyl-4-oxo-41H-chromen-8-yl)ethyl)amino)benzoic acid] | 
 | > 10 µM | 0.11 µM | Cc1cc([C@@H](C)Nc2ccccc2C(=O)O)c2oc(-c3ccc(N4CC[C@H](N(C)C)C4)cc3)c(C)c(=O)c2c1 [Example 169, 2-(((R)-1-(2-(4-((S)-3-(dimethylamino)pyrrolidin-1-yl)phenyl)-3,6-dimethyl-4-oxo-4H-chromen-8-yl)ethyl)amino)benzoic acid] | 
 | > 10 µM | 0.096 µM | Cc1cc([C@@H](C)Nc2ccccc2C(=O)O)c2oc(-c3ccc(N4CC(N(C)C)C4)cc3)c(C)c(=O)c2c1 [Example 170, (R)-2-((1-(2-(4-(3-(dimethylamino)azetidin-1-yl)phenyl)-3,6-dimethyl-4-oxo-4H-chromen-8-yl)ethyl)amino)benzoic acid] | 
 | > 10 µM | 0.072 µM | Cc1cc([C@@H](C)Nc2ccccc2C(=O)O)c2oc(-c3ccc(OC4CN(C)C4)cc3)c(C)c(=O)c2c1 [Example 171, (R)-2-((1-(3,6-dimethyl-2-(4-((1-methylazetidin-3-yl)oxy)phenyl)-4-oxo-4H-chromen-8-yl)ethyl)amino)benzoic acid] | 
 |  |  | Cc1cc(C(C)Nc2ccccc2P(=O)(O)O)c2oc(-c3ccc4nn(C)cc4c3)c(C)c(=O)c2c1 (centres unmarked) [Example 176] | IC50 ([2]; SK-BR-3, 72 h): > 10 µM; IC50 ([3]; T47D, 72 h): > 10 µM
 | > 10 µM | 0.31 µM | Cc1cc(C(C)Nc2ccccc2-c2nc(=O)o[nH]2)c2oc(-c3ccc4nn(C)cc4c3)c(C)c(=O)c2c1 (centres unmarked) [Example 177, 3-(2-((1-(3,6-dimethyl-2-(2-methyl-2H-indazol-5-yl)-4-oxo-4H-chromen-8-yl)ethyl)amino)phenyl)-1,2,4-oxadiazol-5(2H)-one] | 
 | 8.68 µM | 0.16 µM | Cc1cc([C@@H](C)Nc2ccc(Cl)nc2C(=O)O)c2oc(-c3ccc(-c4cnn(C)c4)nc3)c(C)c(=O)c2c1 [Example 186, (R)-6-chloro-3-((1-(3,6-dimethyl-2-(6-(1-methyl-1H-pyrazol-4-yl)pyridin-3-yl)-4-oxo-4H-chromen-8-yl)ethyl)amino)picolinic acid] | 
 | > 10 µM | 0.13 µM | Cc1cc([C@@H](C)Nc2ccccc2C(=O)O)c2oc(-c3ccc(CN4CCN(C)CC4)nc3)c(C)c(=O)c2c1 [Example 188, (R)-2-((1-(3,6-dimethyl-2-(6-((4-methylpiperazin-1-yl)methyl)pyridin-3-yl)-4-oxo-4H-chromen-8-yl)ethyl)amino)benzoic acid] | 
 | > 10 µM | 0.11 µM | Cc1cc([C@@H](C)Nc2ccc(Cl)nc2C(=O)O)c2oc(-c3ccc(CN4CCN(C)CC4)cc3)c(C)c(=O)c2c1 [Example 189, (R)-6-chloro-3-((1-(3,6-dimethyl-2-(4-((4-methylpiperazin-1-yl)methyl)phenyl)-4-oxo-4H-chromen-8-yl)ethyl)amino)picolinic acid] | 
 | 6.05 µM | 0.27 µM | COC(=O)c1ccccc1N[C@H](C)c1cc(C)cc2c(=O)c(C)c(-c3ccc(-c4cnn(C)c4)nc3)oc12 [Example 190, methyl (R)-2-((1-(3,6-dimethyl-2-(6-(1-methyl-1H-pyrazol-4-yl)pyridin-3-yl)-4-oxo-4H-chromen-8-yl)ethyl)amino)benzoate] | 
 | 2.02 µM | 0.27 µM | CNC(=O)c1ccccc1N[C@H](C)c1cc(C)cc2c(=O)c(C)c(-c3ccc(-c4cnn(C)c4)nc3)oc12 [Example 191, (R)-2-((1-(3,6-dimethyl-2-(6-(1-methyl-1H-pyrazol-4-yl)pyridin-3-yl)-4-oxo-4H-chromen-8-yl)ethyl)amino)-N-methylbenzamide] | 
 | > 10 µM | 0.1 µM | Cc1cc([C@@H](C)Nc2ccccc2C(=O)O)c2oc(-c3ccc(OCCN(C)C)nc3)c(C)c(=O)c2c1 [Example 192, (R)-2-((1-(2-(6-(2-(dimethylamino)ethoxy)pyridin-3-yl)-3,6-dimethyl-4-oxo-4H-chromen-8-yl)ethyl)amino)benzoic acid] | 

SMILES | IC50 [1] | IC50 [2, 4] | IC50 [3, 5] | other results
Cc1cc([C@@H](C)Nc2ccccc2C(=O)O)c2oc(-c3ccc(C4CN(C)CCO4)cc3)c(C)c(=O)c2c1 (stereo partly drawn) [Example 167, 2-(((1R)-1-(3,6-dimethyl-2-(4-(4-methylmorpholin-2-yl)phenyl)-4-oxo-4H-chromen-8-yl)ethyl)amino)benzoic acid] |  | 8.34 µM |  | IC50 ([3]; T47D (H1047R), 72 hours, CellTiter-Glo): 0.092 µM
